The text below walks through data of publication PMC9467581 (Journal of Enzyme Inhibition and Medicinal Chemistry, 2022).

One assay addresses AChE. The following applies: mixed inhibition of AChE; cited from earlier work.
Assay [1] concerns the target T1, eeAChE (AChE from Electrophorus electricus) (Electrophorus electricus, UniProt O42275). As to the kind of experiment: biochemical. The following applies: [S] = 121 µM; mean ± SD. How it is done: (§1) The inhibitory activity of 12a–12d against AChE and BuChE was carried out following minor modifications of the Ellman assay,[30] as reported previously[31] using Thermo Scientific^TM Varioskan^TM LUX microplate reader and Greiner F-bottom 96-well plates.

The target in assay [2] is T2, eqBuChE (BuChE from equine serum) (Equus caballus, UniProt P81908).
T2 construct: eqBuChE (BuChE from equine serum); from tissue; host or cells: equine serum
In words: biochemical. Format: biochemical. The following applies: for BuChE selectivity: IC50(AChE)/IC50(BuChE); for IC50: [S] = 112 µM, mean ± SD. How it is done: as §1

Assay [3] addresses T1, eeAChE (AChE from Electrophorus electricus). The following applies: [S] = 121 µM; cited from earlier work.
The target in the next assay is BuChE. Also on record: method as in PMID 33228403. The following applies: mixed inhibition of BuChE; cited from earlier work.

Structures are written as SMILES. Structures can show the parent of a compound that is named as a salt. Where two headings read alike, the source gives them in different places. Where only a bound is given, the exact number is not on record here.

T1 sequence (O42275 24-633): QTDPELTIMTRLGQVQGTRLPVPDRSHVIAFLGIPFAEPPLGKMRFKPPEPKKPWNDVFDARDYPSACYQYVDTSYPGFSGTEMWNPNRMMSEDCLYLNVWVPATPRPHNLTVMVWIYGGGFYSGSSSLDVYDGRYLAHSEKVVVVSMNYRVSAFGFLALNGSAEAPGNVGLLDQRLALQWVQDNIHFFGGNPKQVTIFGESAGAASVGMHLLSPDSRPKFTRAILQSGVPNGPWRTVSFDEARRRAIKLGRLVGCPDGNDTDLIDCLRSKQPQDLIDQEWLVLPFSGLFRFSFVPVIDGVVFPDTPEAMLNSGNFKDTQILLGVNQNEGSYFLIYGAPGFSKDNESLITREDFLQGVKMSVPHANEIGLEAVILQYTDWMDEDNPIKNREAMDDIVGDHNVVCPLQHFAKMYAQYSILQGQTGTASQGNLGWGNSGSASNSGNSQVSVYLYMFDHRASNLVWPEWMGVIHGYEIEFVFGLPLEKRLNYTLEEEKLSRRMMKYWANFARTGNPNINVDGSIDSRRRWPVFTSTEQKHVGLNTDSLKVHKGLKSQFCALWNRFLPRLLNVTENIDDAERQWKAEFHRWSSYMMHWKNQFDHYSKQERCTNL
T2 sequence (P81908 whole entry): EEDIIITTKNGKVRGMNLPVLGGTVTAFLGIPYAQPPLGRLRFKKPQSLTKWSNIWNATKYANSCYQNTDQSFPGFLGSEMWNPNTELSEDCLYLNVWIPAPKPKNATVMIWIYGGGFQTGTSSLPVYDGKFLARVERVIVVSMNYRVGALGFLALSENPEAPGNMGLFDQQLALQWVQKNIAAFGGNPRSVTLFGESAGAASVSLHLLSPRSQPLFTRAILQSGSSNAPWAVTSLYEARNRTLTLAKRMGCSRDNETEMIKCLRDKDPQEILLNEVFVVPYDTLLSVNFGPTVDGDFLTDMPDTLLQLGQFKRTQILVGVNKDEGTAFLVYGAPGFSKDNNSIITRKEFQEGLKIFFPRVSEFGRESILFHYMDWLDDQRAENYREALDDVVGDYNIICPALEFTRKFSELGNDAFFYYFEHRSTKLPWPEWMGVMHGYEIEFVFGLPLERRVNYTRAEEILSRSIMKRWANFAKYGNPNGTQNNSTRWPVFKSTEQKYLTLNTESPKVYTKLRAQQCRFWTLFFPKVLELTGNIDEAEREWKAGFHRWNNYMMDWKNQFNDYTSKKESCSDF

Turning to `OC[C@@H]1[C@@H](O)[C@H](O)[C@@H](O)CN1Cc1cn(CCCCCCNc2c3c(nc4ccccc24)CCCC3)nn1` [Compound 9], on AChE, the Ki is 0.0071 µM and the αKi is on record as 17.4 nM.
The compound `OC[C@@H]1[C@@H](O)[C@H](O)[C@@H](O)CN1CCCn1cc(Cn2nnc3ccccc32)nn1` [Compound 12a] had an IC50 in assay [1] of more than 500 µM. In assay [2], this compound came in with a BuChE selectivity of more than 10 and an IC50 of 50 ± 3 µM.
Take `OC[C@@H]1[C@@H](O)[C@H](O)[C@@H](O)CN1CCCCCNC(=[Se])Nc1ccc(Br)cc1` [Compound 8]: on AChE, the Ki is 5.8 µM.
Take `OC[C@H]1NC[C@H](O)[C@@H](O)[C@@H]1O` [Compound 4, 1-deoxynojirimycin, reference compound]: the IC50 in assay [3] was more than 100 µM. In assay [2], this compound registered a BuChE selectivity of more than 10.
Turning to `COc1ccc(CCOCCCCCCN2C[C@H](O)[C@@H](O)[C@H](O)[C@H]2CO)cc1OC` [Compound 10], on BuChE, the Ki was 1.4 µM and the αKi was 4.5 µM.
In assay [1], `OC[C@@H]1[C@@H](O)[C@H](O)[C@@H](O)CN1CCCCCCCCn1cc(Cn2nnc3ccccc32)nn1` [Compound 12c, N-(1-(2-((1H-benzo[1,2,3]triazol-1-yl)methyl)-1H-1,2,3-triazol-1-yl)octyl)-1-deoxynojirimycin hydrochloride] returned an IC50 of more than 500 µM. Moreover, in assay [2], the BuChE selectivity is recorded as more than 19 and the IC50 is 26 ± 0.7 µM.
Regarding `OC[C@@H]1[C@@H](O)[C@H](O)[C@@H](O)CN1CCCCCCn1cc(Cn2nnc3ccccc32)nn1` [Compound 12b], in assay [1], the IC50 is 65 ± 2 µM. Besides, in assay [2], the “fold more potent BuChE inhibitor than 1-DNJ” value came out at 1.5 fold, the BuChE selectivity came out at 9.7 and the IC50 was 6.7 ± 0.7 µM. In addition, the “uncompetitive inhibition constant αKi” value in assay [2] (BuChE, Cornish-Bowden plots) is 12 ± 1 µM. In assay [2] (BuChE, Cornish-Bowden plots (1/V vs. [I] and [S]/V vs. [I])), the type of inhibition result was “mixed inhibitor”. Also, in assay [2] (BuChE, Cornish-Bowden plots, read-out: competitive inhibition constant Ki), the inhibition constant (Ki) turned out to be 4.9 ± 0.4 µM.
In the case of `OC[C@@H]1[C@@H](O)[C@H](O)[C@@H](O)CN1CCCCCCCCCCn1cc(Cn2nnc3ccccc32)nn1` [Compound 12d, N-(1-(2-((1H-benzo[1,2,3]triazol-1-yl)methyl)-1H-1,2,3-triazol-1-yl)decyl)-1-deoxynojirimycin hydrochloride], the IC50 in assay [1] is more than 500 µM; in assay [2], 17 ± 0.7 µM.
